Assay results published in US20070049588A1, “ATM INHIBITOR” (priority 2005, published 2007).
Where two headings read alike, the source gives them in different places.

Legend:
[1] = Oral bioavailability in mice; assay type: in vivo; conditions: mouse, plasma, 10 mg/kg oral vs intravenous, AUC ratio
Protocol: In order to assess the oral bioavailability of compounds (Ia)-(IV), the compounds were dissolved to 5 mg/ml in an aqueous formulation which was then dosed orally and intravenously at 10 mg/kg to discrete groups of mice. For the intravenously dosed animals, blood samples were taken (three mice per time point) at 3, 5, 15, 30, 60, 120, 240 and 360 minutes post-dose. For the orally dosed animals, blood samples were taken (three mice per time point) at 5, 15, 30, 60, 120, 240 and 360 minutes post-dose. The plasma concentration of each compound at all time points, for both dose routes, was determined by HPLC-MS/MS analysis. The details of the HPLC-MS/MS method are as follows.
Sample was extracted for analysis by homogenisation of tissue, if required, vortex mixing and then centrifugation to produce a compound-containing supernatant that can be assayed by HPLC-MS/MS. Quantitation was achieved by comparison to a serial dilution of a known amount of parent compound. The chromatographic and MS conditions used are given below.
MS conditions were determined by infusing compound dissolved in 50:50 acetonitrile:formic acid (0.01%).
Total exposure as indicated by area under the curve (AUC) was calculated. By definition, intravenous delivery results in 100% bioavailability and the comparative bioavailability obtained through oral delivery is calculated by: [formula]

[2] = Tissue pharmacokinetics, plasma and tumour concentrations; assay type: in vivo; conditions: mouse, ip, mice, 50 mg/kg i.p., mean; for concentration at 1 h: 1 hr post-dose; for concentration at 4 h: 4 hr post-dose
Protocol: In order to assess tissue pharmacokinetics, a single intraperitoneal (i.p.) dose of 50 mg/kg of each compound was administered to discrete groups of mice. Blood and tumour samples were taken (three mice per time point) at 1 and 4 hours post-dose. The concentration of each compound in both matrices at both time points was determined by HPLC-MS/MS analysis using the method described above for Example 6. The mean concentrations found are presented below.

[3] = Maximum single tolerable intravenous dose in rats; conditions: both sexes, rat, in vivo, highest dose without clinical signs in 4 animals, read-out: Rat MTD (i.v.)
Protocol: (§1) The maximum single tolerable intravenous dose which could be administered to rats and mice was determined. Escalating doses of each compound were given to discrete, naive pairs of animals (1 male and 1 female) until a dose that elicited clinical signs, was reached. Then for each compound, two further animals were then treated with the highest dose that had not produced any clinical signs. […]

[4] = Maximum single tolerable intravenous dose in mice; conditions: both sexes, mouse, in vivo, highest dose without clinical signs in 4 animals, read-out: Mouse MTD (i.v.)
Protocol: as §1

[5] = Clonogenic survival assays with chemotherapeutics; assay type: cell-based; conditions: in vitro clonogenic survival assays
HIV = assay: HIV-based LUCIA assay, repression of retroviral infection; assay type: cell-based; conditions: Human immunodeficiency virus 1
Protocol: The ability of compound (Ia) to repress retroviral infections was assessed using an HIV-based LUCIA assay. The LUCIA assay was carried out as described in WO 03/070726 (see pages 125-126 therein), which is incorporated herein by reference.

[6] = plasma, read-out: Plasma concentration
[7] = tumour, read-out: Tumour concentration

SMILES | bioavailability [1] | concentration at 1 h [2, 6] | concentration at 4 h [2, 6] | concentration at 1 h [2, 7] | concentration at 4 h [2, 7] | MTD [3] | MTD [4] | Potentiation of cytotoxic effects of etoposide, camptothecin and doxorubicin [5] | IC50 (HIV)
CN1CCN(CCC(=O)Nc2ccc3c(c2)Cc2cccc(-c4cc(=O)cc(N5CCOCC5)o4)c2S3)CC1 [Compound (II)] | 0% | 3030 ng/mL | 137 ng/mL | 2810 ng/g | 1060 ng/g | 40 mg/kg | < 40 mg/kg | – | –
CN1CCN(CCC(=O)Nc2ccc3c(c2)Sc2cccc(-c4cc(=O)cc(N5CCOCC5)o4)c2S3)CC1 [Compound (III)] | 0% | 2030 ng/mL | 626 ng/mL | 1730 ng/g | 2190 ng/g | 75 mg/kg | < 40 mg/kg | – | –
CC(C)N1CCN(CCC(=O)Nc2ccc3c(c2)Sc2cccc(-c4cc(=O)cc(N5CCOCC5)o4)c2S3)CC1 [Compound (IV)] | 0% | 1920 ng/mL | 383 ng/mL | 899 ng/g | 1090 ng/g | – | < 40 mg/kg | – | –
C[C@@H]1CN(CC(=O)Nc2ccc3c(c2)Cc2cccc(-c4cc(=O)cc(N5CCOCC5)o4)c2S3)C[C@H](C)O1 [Compound (Ia), 2-((2R,6S)-2,6-Dimethyl-morpholin-4-yl)-N-[5-(6-morpholin-4-yl-4-oxo-4H-pyran-2-yl)-9H-thioxanthen-2-yl]-acetamide] | 37% | 31800 ng/mL | 5960 ng/mL | 19700 ng/g | 4140 ng/g | > 100 mg/kg | 75 mg/kg | potentiate the cytotoxic effects | 1300 nM
